Assay results from ChEMBL document CHEMBL1129269, “1-aryl-4-[(1-tetralinyl)alkyl]piperazines: alkylamido and alkylamino derivatives. Synthesis, 5-HT1A receptor affinity, and selectivity. 3” (J Med Chem, 1996).

Columns and labels:
[1] = target: T1, Adrenergic receptor alpha-2 (Rattus norvegicus, UniProt P22086+P19328+P22909); test: Binding affinity against Alpha-2 adrenergic receptor in rat brain membrane using [3H]yohimbine as radioligand; format: cell membranes
T1 sequence (P22086 whole entry): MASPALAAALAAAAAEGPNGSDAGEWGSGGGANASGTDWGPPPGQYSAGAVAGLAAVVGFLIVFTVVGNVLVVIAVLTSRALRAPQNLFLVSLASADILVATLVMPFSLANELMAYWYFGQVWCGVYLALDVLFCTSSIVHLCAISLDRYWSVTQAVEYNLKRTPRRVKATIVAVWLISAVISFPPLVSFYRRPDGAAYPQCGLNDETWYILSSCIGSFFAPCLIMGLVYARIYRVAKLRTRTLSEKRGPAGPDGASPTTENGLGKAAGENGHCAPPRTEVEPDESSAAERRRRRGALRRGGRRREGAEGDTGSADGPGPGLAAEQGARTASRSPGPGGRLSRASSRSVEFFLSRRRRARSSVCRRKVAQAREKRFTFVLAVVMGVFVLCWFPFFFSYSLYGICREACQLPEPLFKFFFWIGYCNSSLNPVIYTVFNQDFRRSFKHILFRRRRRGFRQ
T1 sequence (P19328 whole entry): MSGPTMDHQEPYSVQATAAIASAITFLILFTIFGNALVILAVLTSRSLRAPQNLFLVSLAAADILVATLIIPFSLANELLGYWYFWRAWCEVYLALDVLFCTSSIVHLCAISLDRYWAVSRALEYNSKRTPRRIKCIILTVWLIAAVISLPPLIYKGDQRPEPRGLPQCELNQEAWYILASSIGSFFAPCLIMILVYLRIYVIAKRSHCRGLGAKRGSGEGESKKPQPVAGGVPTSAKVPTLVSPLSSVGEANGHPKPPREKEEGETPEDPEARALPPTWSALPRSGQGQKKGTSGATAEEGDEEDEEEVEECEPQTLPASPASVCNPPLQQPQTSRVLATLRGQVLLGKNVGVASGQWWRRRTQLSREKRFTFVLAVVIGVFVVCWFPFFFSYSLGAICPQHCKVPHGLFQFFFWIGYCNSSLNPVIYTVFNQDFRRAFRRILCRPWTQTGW
T1 sequence (P22909 whole entry): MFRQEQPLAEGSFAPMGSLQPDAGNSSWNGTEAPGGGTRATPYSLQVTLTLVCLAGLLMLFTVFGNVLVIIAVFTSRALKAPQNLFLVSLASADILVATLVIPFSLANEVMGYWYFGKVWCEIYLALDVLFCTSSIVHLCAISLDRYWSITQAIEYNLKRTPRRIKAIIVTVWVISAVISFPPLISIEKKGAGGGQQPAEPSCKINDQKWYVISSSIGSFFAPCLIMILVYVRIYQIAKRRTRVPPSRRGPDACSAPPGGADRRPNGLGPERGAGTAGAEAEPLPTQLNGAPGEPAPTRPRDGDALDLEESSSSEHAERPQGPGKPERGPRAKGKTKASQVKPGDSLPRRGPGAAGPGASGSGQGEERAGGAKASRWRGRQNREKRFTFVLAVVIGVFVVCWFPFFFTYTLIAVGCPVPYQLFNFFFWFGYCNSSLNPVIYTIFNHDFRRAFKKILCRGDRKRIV

D(2) dopamine receptor = D(2) dopamine receptor (Rattus norvegicus, UniProt P61169); test: Binding affinity against Dopamine receptor D2 in rat striatal membrane using [3H]spiroperidol as radioligand; format: cell membranes, Striatum
[2] = target: T2, Adrenergic receptor alpha-1 (Rattus norvegicus, UniProt P15823+P23944+P43140); test: Binding affinity against Alpha-1 adrenergic receptor in rat brain membrane using [3H]prazosin as radioligand; format: cell membranes
T2 sequence (P15823 whole entry): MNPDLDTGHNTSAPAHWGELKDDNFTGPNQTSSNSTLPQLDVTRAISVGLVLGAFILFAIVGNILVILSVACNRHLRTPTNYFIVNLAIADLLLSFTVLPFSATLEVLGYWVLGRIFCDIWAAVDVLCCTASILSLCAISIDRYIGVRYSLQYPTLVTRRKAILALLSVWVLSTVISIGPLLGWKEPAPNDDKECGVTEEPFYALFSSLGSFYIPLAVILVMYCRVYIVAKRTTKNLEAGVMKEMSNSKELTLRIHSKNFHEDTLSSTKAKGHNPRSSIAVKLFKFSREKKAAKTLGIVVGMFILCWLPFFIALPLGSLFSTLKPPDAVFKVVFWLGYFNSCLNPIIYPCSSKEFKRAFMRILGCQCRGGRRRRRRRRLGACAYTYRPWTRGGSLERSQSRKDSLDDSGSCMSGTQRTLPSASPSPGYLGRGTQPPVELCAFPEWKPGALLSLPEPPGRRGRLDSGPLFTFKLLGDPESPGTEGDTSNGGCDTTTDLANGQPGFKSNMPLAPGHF
T2 sequence (P23944 whole entry): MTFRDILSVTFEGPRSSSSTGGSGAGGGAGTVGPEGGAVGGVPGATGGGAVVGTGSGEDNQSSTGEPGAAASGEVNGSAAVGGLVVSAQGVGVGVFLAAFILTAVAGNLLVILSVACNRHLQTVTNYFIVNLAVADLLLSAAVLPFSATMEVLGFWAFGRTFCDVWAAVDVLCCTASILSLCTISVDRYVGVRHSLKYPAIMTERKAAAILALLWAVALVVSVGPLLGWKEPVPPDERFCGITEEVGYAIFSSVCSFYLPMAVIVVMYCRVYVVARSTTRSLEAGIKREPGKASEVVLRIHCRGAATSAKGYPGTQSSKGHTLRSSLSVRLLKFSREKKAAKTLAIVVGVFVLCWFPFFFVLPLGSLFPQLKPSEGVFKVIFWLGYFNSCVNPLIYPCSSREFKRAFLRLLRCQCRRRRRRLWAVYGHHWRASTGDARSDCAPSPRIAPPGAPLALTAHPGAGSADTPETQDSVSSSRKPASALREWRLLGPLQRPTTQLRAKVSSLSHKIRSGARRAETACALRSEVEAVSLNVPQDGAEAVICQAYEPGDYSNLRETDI
T2 sequence (P43140 whole entry): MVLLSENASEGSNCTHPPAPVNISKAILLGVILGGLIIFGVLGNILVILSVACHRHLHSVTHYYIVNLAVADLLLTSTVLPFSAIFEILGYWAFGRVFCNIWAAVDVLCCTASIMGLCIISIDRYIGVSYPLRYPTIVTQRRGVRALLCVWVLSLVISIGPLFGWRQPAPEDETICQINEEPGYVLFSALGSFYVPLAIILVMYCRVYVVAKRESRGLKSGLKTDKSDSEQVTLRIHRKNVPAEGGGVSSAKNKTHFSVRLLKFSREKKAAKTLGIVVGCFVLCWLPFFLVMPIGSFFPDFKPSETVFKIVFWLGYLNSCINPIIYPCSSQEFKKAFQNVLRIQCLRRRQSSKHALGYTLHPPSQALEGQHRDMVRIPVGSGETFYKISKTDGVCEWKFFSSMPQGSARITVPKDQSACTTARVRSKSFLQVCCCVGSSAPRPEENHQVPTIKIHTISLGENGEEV

[3] = target: Serotonin 2 (5-HT2) receptor (Rattus norvegicus, UniProt P30994+P08909+P14842); test: Binding affinity against 5-hydroxytryptamine 2 receptor in rat brain using [3H]ketanserin as radioligand; format: tissue-based
[4] = target: T3, 5-hydroxytryptamine receptor 1A (Rattus norvegicus, UniProt P19327); test: Binding affinity against 5-hydroxytryptamine 1A receptor in rat hippocampus membranes using [3H]8-OH-DPAT as radioligand; format: cell membranes, Membrane
T3 sequence (P19327 whole entry): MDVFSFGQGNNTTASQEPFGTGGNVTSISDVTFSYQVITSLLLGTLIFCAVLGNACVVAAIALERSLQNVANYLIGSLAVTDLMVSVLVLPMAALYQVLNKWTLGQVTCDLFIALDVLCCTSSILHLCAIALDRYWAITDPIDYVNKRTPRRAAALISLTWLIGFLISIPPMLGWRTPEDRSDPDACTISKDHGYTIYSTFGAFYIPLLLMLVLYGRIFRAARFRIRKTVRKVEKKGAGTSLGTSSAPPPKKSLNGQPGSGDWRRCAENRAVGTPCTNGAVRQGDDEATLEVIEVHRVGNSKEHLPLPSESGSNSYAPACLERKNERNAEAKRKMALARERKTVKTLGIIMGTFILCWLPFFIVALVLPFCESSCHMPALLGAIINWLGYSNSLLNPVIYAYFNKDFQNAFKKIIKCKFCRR

[5] = target: T3, 5-hydroxytryptamine receptor 1A; test: Binding affinity against serotonin 5-hydroxytryptamine 1A receptor in rat hippocampus membrane using [3H]8-OH-DPAT as radioligand; format: cell membranes

Chain of D(2) dopamine receptor (P61169 whole entry): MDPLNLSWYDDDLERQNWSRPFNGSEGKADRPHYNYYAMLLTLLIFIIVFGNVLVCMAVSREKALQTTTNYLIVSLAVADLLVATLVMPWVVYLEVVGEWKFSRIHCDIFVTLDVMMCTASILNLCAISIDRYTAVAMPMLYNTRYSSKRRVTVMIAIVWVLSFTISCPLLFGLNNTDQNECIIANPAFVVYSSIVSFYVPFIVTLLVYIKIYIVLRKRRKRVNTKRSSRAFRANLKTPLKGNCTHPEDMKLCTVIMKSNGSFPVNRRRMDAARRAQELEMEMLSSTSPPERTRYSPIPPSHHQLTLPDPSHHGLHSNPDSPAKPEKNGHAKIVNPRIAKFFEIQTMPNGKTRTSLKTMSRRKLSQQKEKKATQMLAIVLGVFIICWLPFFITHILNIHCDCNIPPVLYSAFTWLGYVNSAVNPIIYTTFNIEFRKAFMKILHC

Compound	IC50 [1] [nM]	IC50 (D(2) dopamine receptor) [nM]	IC50 [2] [nM]	IC50 [3] [nM]	IC50 [4] [nM]	IC50 [5] [nM]
COc1ccccc1N1CCN(CCCNC2CCCc3c(OC)cccc32)CC1 (stereo not given)	458	1060	881	3300	10	
COc1cccc2c1CCCC2C(=O)NCCN1CCN(c2ccccn2)CC1 (stereo not given)	7220	2440	838	1270		173
COc1cccc2c1CCCC2CNCCN1CCN(c2ccccc2)CC1 (stereo not given)	1420	1100	1150	1900	116	
COc1cccc2c1CCCC2NCCN1CCN(c2ccccn2)CC1 (stereo not given)	95	1850	725	9140		
COc1cccc2c1CCCC2NC(=O)CCN1CCN(c2ccccc2)CC1 (stereo not given)	2680	2970	313	1200	311	
COc1cccc2c1CCCC2NC(=O)CN1CCN(c2ccccc2)CC1 (stereo not given)	> 10000	> 10000	5980	> 10000		
COc1ccccc1N1CCN(CCCC2CCCc3c(OC)cccc32)CC1 (stereo not given)	17		6.5	330		0.77
COc1cccc2c1CCCC2C(=O)NCCN1CCN(c2ccccc2)CC1 (stereo not given)	1850	4040	427	1560		416
COc1cccc2c1CCCC2NC(=O)CCN1CCN(c2ccccn2)CC1 (stereo not given)	1330	1900	534	726	135	
COc1cccc2c1CCCC2NCCCN1CCN(c2ccccc2)CC1 (stereo not given)	788	2160	626	2690	53	
COc1cccc2c1CCCC2NCCN1CCN(c2ccccc2)CC1 (stereo not given)	310	1200	790	2720	92	

More lines, in order of falling IC50 (D(2) dopamine receptor), values ahead:

IC50 [1] [nM]	IC50 (D(2) dopamine receptor) [nM]	IC50 [2] [nM]	IC50 [3] [nM]	IC50 [4] [nM]	IC50 [5] [nM]	Compound
250	882	510	848	271		COc1cccc2c1CCCC2C(=O)N(C)CCN1CCN(c2ccccc2)CC1 (stereo not given)
746	819	327	428	95		COc1cccc2c1CCCC2C(=O)NCCCN1CCN(c2ccccn2)CC1 (stereo not given)
186	783	19	349		63	COc1cccc2c1CCCC2C(=O)NCCCN1CCN(c2ccccc2)CC1 (stereo not given)
1250	761	153	841			COc1ccccc1N1CCN(CCC(=O)NC2CCCc3c(OC)cccc32)CC1 (stereo not given)
144	594	159	134	134		COc1cccc2c1CCCC2C(=O)N(C)CCCN1CCN(c2ccccc2)CC1 (stereo not given)
1380	448		1710		35	COc1ccccc1N1CCN(CCNC(=O)C2CCCc3c(OC)cccc32)CC1 (stereo not given)
183	332	297	1070	307		COc1ccccc1N1CCN(CCN(C)C(=O)C2CCCc3c(OC)cccc32)CC1 (stereo not given)
564	116	84	2040		16	COc1ccccc1N1CCN(CCCNC(=O)C2CCCc3c(OC)cccc32)CC1 (stereo not given)
112	73	887	1740	8.7		COc1ccccc1N1CCN(CCN(C)C2CCCc3c(OC)cccc32)CC1 (stereo not given)
